# Patent publication US20050119300A1, “Development of novel regulators of angiogenesis” (priority 2002, published 2005)
# What was measured:
# [1] = tested on: VEGF-induced and bFGF-induced corneal neovascularization; conditions: further studies, reported; cited from earlier work
# [2] = tested on: human vascular endothelial cells (HUVECS); assay: Endothelial cell proliferation, 3H-thymidine uptake assay; assay type: cell-based; conditions: for % Inhibition vs 10% Serum / Average ([3H]-thymidine incorporation, radioactivity) / Well 1 ([3H]-thymidine incorporation, radioactivity) / Well 2 ([3H]-thymidine incorporation, radioactivity) / Well 3 ([3H]-thymidine incorporation, radioactivity) / Well 4 ([3H]-thymidine incorporation, radioactivity): Table 1A
# Protocol: After 20 h, [^3H]-thymidine (2 μCi/ml) was added to the culture medium for 2-4 h. The [^3H]-thymidine incorporation was stopped with ice-cold PBS (3 washes) and the cells were incubated with cold 10% trichloroacetic acid (TCA) for 10 min at 4C. The cells were further incubated with TCA at room temperature for 10 min and washed three times with PBS. The cells were solubilized overnight with 1N NaOH and neutralized with an equivalent amount of 1N HCl before radioactivity was determined. […]
# [3] = tested on: vascular endothelial growth factor (VEGF) and basic fibroblast growth factor (bFGF) induced angiogenesis; conditions: has been reported; cited from earlier work
# endothelial cells = conditions: reported; cited from earlier work
structure (smiles),measurement,setting,value
O=C1CC[C@H](N2C(=O)c3ccccc3C2=O)C(=O)N1 [S(−)-enantiomer of thalidomide],anti-angiogenic activity in VEGF-induced and bFGF-induced corneal neovascularization,[1],potent anti-angiogenic activity
"O=C1CCC(N2C(=O)c3ccccc3C2=O)C(=O)N1 (stereo not shown) [STD, thalidomide]",effect on endothelial cell proliferation (in words),[2]; 3H-thymidine uptake,significant inhibition of endothelial cell proliferation
same,% Inhibition vs 10% Serum,[2]; 38.5 uM,−61.49%
same,"Average ([3H]-thymidine incorporation, radioactivity)",[2]; 38.5 uM,2700.214
same,"Well 1 ([3H]-thymidine incorporation, radioactivity)",[2]; 38.5 uM,1835.938
same,"Well 2 ([3H]-thymidine incorporation, radioactivity)",[2]; 38.5 uM,2018.496
same,"Well 3 ([3H]-thymidine incorporation, radioactivity)",[2]; 38.5 uM,4751.43
same,"Well 4 ([3H]-thymidine incorporation, radioactivity)",[2]; 38.5 uM,2194.99
same,% Inhibition vs 10% Serum,[2]; 96 uM,30.39%
same,"Average ([3H]-thymidine incorporation, radioactivity)",[2]; 96 uM,1163.906
same,"Well 1 ([3H]-thymidine incorporation, radioactivity)",[2]; 96 uM,1736.688
same,"Well 2 ([3H]-thymidine incorporation, radioactivity)",[2]; 96 uM,850.094
same,"Well 3 ([3H]-thymidine incorporation, radioactivity)",[2]; 96 uM,1083.54
same,"Well 4 ([3H]-thymidine incorporation, radioactivity)",[2]; 96 uM,985.3011
same,% Inhibition vs 10% Serum,[2]; 192.5 uM,78.48%
same,"Average ([3H]-thymidine incorporation, radioactivity)",[2]; 192.5 uM,359.8271
same,"Well 1 ([3H]-thymidine incorporation, radioactivity)",[2]; 192.5 uM,255.2577
same,"Well 2 ([3H]-thymidine incorporation, radioactivity)",[2]; 192.5 uM,435.4396
same,"Well 3 ([3H]-thymidine incorporation, radioactivity)",[2]; 192.5 uM,336.7686
same,"Well 4 ([3H]-thymidine incorporation, radioactivity)",[2]; 192.5 uM,411.8425
same,% Inhibition vs 10% Serum,[2]; 289 uM,85.34%
same,"Average ([3H]-thymidine incorporation, radioactivity)",[2]; 289 uM,245.0808
same,"Well 1 ([3H]-thymidine incorporation, radioactivity)",[2]; 289 uM,198.4536
same,"Well 2 ([3H]-thymidine incorporation, radioactivity)",[2]; 289 uM,273.8429
same,"Well 3 ([3H]-thymidine incorporation, radioactivity)",[2]; 289 uM,272.3789
same,"Well 4 ([3H]-thymidine incorporation, radioactivity)",[2]; 289 uM,235.6478
same,% Inhibition vs 10% Serum,[2]; 385 uM,86.86%
same,"Average ([3H]-thymidine incorporation, radioactivity)",[2]; 385 uM,219.7341
same,"Well 1 ([3H]-thymidine incorporation, radioactivity)",[2]; 385 uM,141.5772
same,"Well 2 ([3H]-thymidine incorporation, radioactivity)",[2]; 385 uM,255.4687
same,"Well 3 ([3H]-thymidine incorporation, radioactivity)",[2]; 385 uM,210.2551
same,"Well 4 ([3H]-thymidine incorporation, radioactivity)",[2]; 385 uM,271.6354
same,anti-angiogenic efficacy against VEGF and bFGF induced angiogenesis,[3],significant anti-angiogenic efficacy
same,inhibition of the in vitro proliferation of endothelial cells,endothelial cells,ability to inhibit
